Key:
MCL = conditions: ibrutinib added to CART19 therapy
[1] = test system: relapsed/refractory diffuse large B-cell lymphoma (DLBCL); experiment: JULIET (NCT02445248) pivotal phase 2 trial of tisagenlecleucel in adult r/r DLBCL; assay type: in vivo, human
From the text: This Example describes the JULIET (NCT02445248) clinical trial, which is a single-arm, open-label, multicenter, global, pivotal phase 2 trial of tisagenlecleucel, a chimeric antigen receptor (CAR)-T cell therapy targeting CD19, that has shown a high rate of durable complete responses (CR) and a manageable safety profile in adult patients with relapsed/refractory (r/r) diffuse large B-cell lymphoma (DLBCL). The primary objective was met at the interim analysis, with an overall response rate (ORR) of 59% (CR, 43%; partial response [PR], 16%). An updated analysis of the JULIET trial is presented herein with 19 months of follow-up, an additional 5 months since the previous report.
The primary endpoint was ORR (CR+PR) per independent review committee. Efficacy results are reported for patients in the main cohort with ≥3 months follow-up or earlier discontinuation; safety is reported for all infused patients.
At data cutoff (21 May 2018), 167 patients were enrolled and 115 were infused (99 with US-manufactured [main cohort] and 16 with EU-manufactured [cohort A] tisagenlecleucel) with a single dose of tisagenlecleucel (median, 3.0×10^8 [range, 0.1-6.0×10^8] CAR19-positive viable T cells). 90% of patients received bridging therapy and 93% received lymphodepleting chemotherapy. Median time from infusion to data cutoff was 19.3 months. Median age was 56 years (range, 22-76); 23% were ≥65 years. At study entry, 77% of infused patients had stage III/IV disease, 17% had double/triple hits in MYC/BCL2/BCL6. 55% and 43% had germinal center and activated B-cell molecular subtypes, respectively. 51% of patients had received ≥3 prior lines of antineoplastic therapy (range, 1-6); 49% had undergone a prior ASCT. All 99 patients in the main cohort had ≥3 months of follow-up or discontinued earlier and were evaluable for efficacy. ORR was 54% (95% CI, 43%-64%) with 40% CR and 13% PR. ORR was consistent across prognostic subgroups (including prior ASCT and double/triple-hit lymphoma) Median duration of response (DOR) was not reached; the probability of being relapse-free was 66% (95% CI, 51%-78%) at 6 months and 64% (95% CI, 48%-76%) at 12 months. DOR was similar by age group (≥ vs <65y) and by relapsed or refractory status (Figure). Median OS among all infused patients was 11.1 months (95% CI, 6.6-NE); OS probability at month 12, 48% (95% CI, 38%-57%; max follow-up, 29 months). No patients proceeded to allogeneic/ASCT while in remission.

| Compound | CART19-mediated CRS (MCL) | survival of the mice (MCL) | Median OS ([1]; all infused patients, 95% CI 6.6-NE) [months] | probability of being relapse-free ([1]; at 6 months, 95% CI 51%-78%) [%] | probability of being relapse-free ([1]; at 12 months, 95% CI 48%-76%) [%] | OS probability ([1]; at month 12, 95% CI 38%-57%) [%] | CR ([1]; interim analysis) [%] | overall response rate (ORR) ([1]; interim analysis) [%] | partial response [PR] ([1]; interim analysis) [%] | Median duration of response (DOR) ([1]; updated analysis) | ORR ([1]; updated analysis, data cutoff 21 May 2018, 99 patients main cohort, 95% CI 43%-64%) [%] | CR ([1]; updated analysis, main cohort) [%] | PR ([1]; updated analysis, main cohort) [%] |
| --- | --- | --- | --- | --- | --- | --- | --- | --- | --- | --- | --- | --- | --- |
| C=CC(=O)N1CCC[C@@H](n2nc(-c3ccc(Oc4ccccc4)cc3)c3c(N)ncnc32)C1 [ibrutinib, 1-[(3R)-3-[4-Amino-3-(4-phenoxyphenyl)-1H-pyrazolo[3,4-d]pyrimidin-1-yl]piperidin-1-yl]prop-2-en-1-one] | reduced the CART19-mediated CRS | prolonged survival |  |  |  |  |  |  |  |  |  |  |  |
| tisagenlecleucel |  |  | 11.1 | 66 | 64 | 48 | 43 | 59 | 16 | not reached | 54 | 40 | 13 |
